Source: publication PMC10746543, “Design principles for cyclin K molecular glue degraders” (Nature Chemical Biology, 2023)
“And” between values parts separate entries of the source, which are not always exact repeats. Equal values may be shown once. Read-outs that look alike come from different tables or passages of the source.

Key:
[1] = biological target: T1, CDK12–cyclin K and DDB1 (Homo sapiens, UniProt Q16531+Q9NYV4, K965R); experiment: TR-FRET ternary complex formation assay (compound titration); type: binding; conditions: for TR-FRET signal at compound concentration 4.68 nM / TR-FRET signal at compound concentration 21.6 nM / TR-FRET signal at compound concentration 36 nM / TR-FRET signal at compound concentration 79.2001 nM / TR-FRET signal at compound concentration 158.4 nM / TR-FRET signal at compound concentration 309.6 nM / TR-FRET signal at compound concentration 626.401 nM / TR-FRET signal at compound concentration 1252.8 nM / TR-FRET signal at compound concentration 2448 nM / TR-FRET signal at compound concentration 9936.01 nM / TR-FRET signal at compound concentration 20016 nM: raw titration data; for TR-FRET signal at compound concentration: replicate titrations
T1 construct: His6–CDK12 (a.a. 713–1,052); full-length or beta-propeller B domain deletion (ΔBPB: a.a. 396–705 deleted) constructs of His6–DDB1ΔBPB, StrepII–Avi–DDB1, or His6–Spy–DDB1; made in house; host or cells: Trichoplusia ni High Five insect cells (baculovirus)
Procedure, shortened: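 Background fluorescence is reduced by reading 70 μs after excitation, and complex formation is followed as the 520:490 nm fluorescence ratio.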

[2] = tested on: cyclin K–eGFP degradation reporter; experiment: Cyclin K reporter stability analysis (dual-color cyclin K–eGFP reporter); type: cell-based, human; conditions: source data sheet correlations; read-out: DC50
Procedure, shortened: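 First, reporter-bearing HEK293T–Cas9 cells are plated at 1 × 10^6 ml^−1. Next, drug or vehicle is added for 5 h. Finally, geometric-mean eGFP and mCherry signals of round, mCherry-positive cells are measured cytometrically, and their ratio is referenced to the DMSO average.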

[3] = tested on: HEK293T cells; experiment: Drug sensitivity assay (CellTiter-Glo viability) with or without MLN4924 pretreatment; type: cell-based, human; conditions: for EC50: Homo sapiens, HEK-293T; for Toxicity rescue: MLN4924-mediated cytotoxicity rescue, 10 µM used where n.d.
Procedure, shortened: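 First, cells (HEK293T–Cas9, 0.15 × 10^6 ml^−1) are exposed to DMSO or 100 nM MLN4924. Next, drugs follow at 2 h. Finally, CellTiter-Glo is read at day 3 and normalised to DMSO.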

[4] = compound concentration 79.2001 nM
[5] = compound concentration 158.4 nM
[6] = compound concentration 309.6 nM
[7] = compound concentration 626.401 nM
[8] = compound concentration 1252.8 nM
[9] = compound concentration 9936.01 nM
[10] = compound concentration 20016 nM
[11] = in vitro complex formation, 50 nM CDK12–cyclin K, 100 nM DDB1, text and figures, read-out: TR-FRET EC50
[12] = sheet MOESM7, read-out: log TR-FRET EC50 (converted)
[13] = source data sheet correlations, read-out: TR-FRET EC50
[14] = Supplementary Fig. 5, HEK293T, CellTiter Glo, 72h, read-out: Viability EC50, no MLN4924
[15] = Supplementary Table 2, HEK293T viability, 72 h, compound alone, read-out: Cellular assays EC50
[16] = compound concentration 0.468 nM
[17] = compound concentration 7.92001 nM
[18] = compound concentration 15.84 nM
[19] = compound concentration 30.96 nM
[20] = compound concentration 62.6401 nM
[21] = compound concentration 125.28 nM
[22] = compound concentration 244.8 nM
[23] = compound concentration 993.601 nM
[24] = compound concentration 2001.6 nM

T1 sequence (Q9NYV4 713-1052 K965R): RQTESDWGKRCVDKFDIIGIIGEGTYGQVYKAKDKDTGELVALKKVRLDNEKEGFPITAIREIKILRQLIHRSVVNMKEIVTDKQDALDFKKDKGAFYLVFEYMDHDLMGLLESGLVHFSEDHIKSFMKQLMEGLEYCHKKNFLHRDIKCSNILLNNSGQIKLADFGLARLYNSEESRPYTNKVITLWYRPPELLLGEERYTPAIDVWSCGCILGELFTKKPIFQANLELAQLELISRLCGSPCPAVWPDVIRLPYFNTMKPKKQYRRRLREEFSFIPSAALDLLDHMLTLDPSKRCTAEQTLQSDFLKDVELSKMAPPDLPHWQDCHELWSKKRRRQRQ
T1 sequence (O75909 1-267 partner): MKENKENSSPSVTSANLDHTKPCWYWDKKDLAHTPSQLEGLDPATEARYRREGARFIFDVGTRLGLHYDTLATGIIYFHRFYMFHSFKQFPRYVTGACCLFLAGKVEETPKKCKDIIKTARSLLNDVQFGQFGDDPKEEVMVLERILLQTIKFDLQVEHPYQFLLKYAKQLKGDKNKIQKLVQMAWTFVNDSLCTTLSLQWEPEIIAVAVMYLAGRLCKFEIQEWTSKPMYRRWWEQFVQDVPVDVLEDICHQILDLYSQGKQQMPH
T1 sequence (Q16531 whole entry): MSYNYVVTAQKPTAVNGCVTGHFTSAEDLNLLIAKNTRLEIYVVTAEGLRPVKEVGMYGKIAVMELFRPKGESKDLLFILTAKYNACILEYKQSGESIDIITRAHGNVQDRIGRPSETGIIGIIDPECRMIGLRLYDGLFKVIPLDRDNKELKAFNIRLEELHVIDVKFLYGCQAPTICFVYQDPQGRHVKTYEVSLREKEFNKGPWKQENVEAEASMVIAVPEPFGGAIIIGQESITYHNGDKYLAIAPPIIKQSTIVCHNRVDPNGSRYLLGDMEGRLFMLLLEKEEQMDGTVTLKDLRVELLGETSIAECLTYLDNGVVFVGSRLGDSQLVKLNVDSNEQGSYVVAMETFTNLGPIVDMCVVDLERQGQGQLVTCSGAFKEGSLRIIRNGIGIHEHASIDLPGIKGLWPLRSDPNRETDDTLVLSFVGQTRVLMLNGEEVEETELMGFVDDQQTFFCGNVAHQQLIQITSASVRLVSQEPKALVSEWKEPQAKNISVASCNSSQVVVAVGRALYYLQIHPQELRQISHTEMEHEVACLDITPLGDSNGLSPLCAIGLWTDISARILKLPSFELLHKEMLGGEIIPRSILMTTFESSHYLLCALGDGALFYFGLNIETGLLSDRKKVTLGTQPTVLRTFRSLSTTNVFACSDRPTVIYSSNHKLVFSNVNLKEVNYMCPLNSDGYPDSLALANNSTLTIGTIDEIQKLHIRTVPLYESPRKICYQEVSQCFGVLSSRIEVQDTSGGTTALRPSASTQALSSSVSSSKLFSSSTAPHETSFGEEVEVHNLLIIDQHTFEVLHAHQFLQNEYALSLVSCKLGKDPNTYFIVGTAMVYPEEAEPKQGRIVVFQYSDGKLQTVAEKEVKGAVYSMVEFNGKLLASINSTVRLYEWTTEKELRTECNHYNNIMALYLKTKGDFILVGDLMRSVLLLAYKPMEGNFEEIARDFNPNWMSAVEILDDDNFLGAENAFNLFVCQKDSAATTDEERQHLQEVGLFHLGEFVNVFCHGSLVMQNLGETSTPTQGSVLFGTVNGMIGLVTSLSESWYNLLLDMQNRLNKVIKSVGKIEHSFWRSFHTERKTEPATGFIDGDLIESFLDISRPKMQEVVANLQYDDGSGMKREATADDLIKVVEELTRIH

| SMILES | EC50 [1, 11] [nM] | EC50 [1, 12] [nM] | EC50 [1, 13] [nM] | DC50 [2] [nM] | EC50 [3, 15] [nM] | Toxicity rescue ([3]; Supplementary Table 2) [%] | TR-FRET signal at compound concentration [1, 16] | TR-FRET signal at compound concentration ([1]; compound concentration 2.16 nM) | TR-FRET signal at compound concentration ([1]; compound concentration 3.6 nM) | TR-FRET signal at compound concentration [1, 17] | TR-FRET signal at compound concentration [1, 18] | TR-FRET signal at compound concentration [1, 19] | TR-FRET signal at compound concentration [1, 20] | TR-FRET signal at compound concentration [1, 21] | TR-FRET signal at compound concentration [1, 22] | TR-FRET signal at compound concentration [1, 23] | TR-FRET signal at compound concentration [1, 24] | other results |
| --- | --- | --- | --- | --- | --- | --- | --- | --- | --- | --- | --- | --- | --- | --- | --- | --- | --- | --- |
| CC(C)n1cnc2c(NCc3ccc(-c4ccccn4)cc3)nc(N[C@@H](Cc3ccc(OCc4ccccc4)cc3)c3nnc[nH]3)nc21 [DS58] | 948 ± 61 | 948 | 948 | 2020 | 1780 | 461 |  |  |  |  |  |  |  |  |  |  |  | TR-FRET signal at compound concentration 4.68 nM ([1]; compound concentration 4.68 nM): 0.2093 and 0.2396; TR-FRET signal at compound concentration 21.6 nM ([1]; compound concentration 21.6 nM): 0.2345 and 0.3021; TR-FRET signal at compound concentration 36 nM ([1]; compound concentration 36 nM): 0.286 and 0.3105; TR-FRET signal at compound concentration 79.2001 nM [1, 4]: 0.3776 and 0.414; TR-FRET signal at compound concentration 158.4 nM [1, 5]: 0.5529 and 0.574; TR-FRET signal at compound concentration 309.6 nM [1, 6]: 0.8665 and 0.8767; TR-FRET signal at compound concentration 626.401 nM [1, 7]: 1.353 and 1.369; TR-FRET signal at compound concentration 1252.8 nM [1, 8]: 2.037 and 2.014; TR-FRET signal at compound concentration 2448 nM ([1]; compound concentration 2448 nM): 2.68 and 2.699; TR-FRET signal at compound concentration 9936.01 nM [1, 9]: 3.329 and 3.445; TR-FRET signal at compound concentration 20016 nM [1, 10]: 3.076 and 3.1; EC50 [3, 14]: 1750 nM |
| Cc1nn(C)c(CNc2nc(NCc3ccc(-c4ccccn4)cc3)c3ncn(C(C)C)c3n2)c1S(N)(=O)=O [DS59] | 101 ± 5 |  | 101 | 566 | 1420 | 230 |  |  |  |  |  |  |  |  |  |  |  | TR-FRET signal at compound concentration 4.68 nM ([1]; compound concentration 4.68 nM): 0.1939 and 0.1953; TR-FRET signal at compound concentration 21.6 nM ([1]; compound concentration 21.6 nM): 0.4174 and 0.4335; TR-FRET signal at compound concentration 36 nM ([1]; compound concentration 36 nM): 0.8682 and 0.9198; TR-FRET signal at compound concentration 79.2001 nM [1, 4]: 1.565 and 1.549; TR-FRET signal at compound concentration 158.4 nM [1, 5]: 2.139 and 2.165; TR-FRET signal at compound concentration 309.6 nM [1, 6]: 2.574 and 2.56; TR-FRET signal at compound concentration 626.401 nM [1, 7]: 2.883 and 2.886; TR-FRET signal at compound concentration 1252.8 nM [1, 8]: 3.135 and 3.111; TR-FRET signal at compound concentration 2448 nM ([1]; compound concentration 2448 nM): 3.2283 and 3.26; TR-FRET signal at compound concentration 9936.01 nM [1, 9]: 3.148 and 3.114; TR-FRET signal at compound concentration 20016 nM [1, 10]: 2.946 and 3.018 |
| CC[C@H](CO)Nc1nc(NCc2ccc(OCCO)cc2)c2ncn(C(C)C)c2n1 [DS61] | 169 ± 7 |  | 168 | 917 | 283 | 278 |  |  |  |  |  |  |  |  |  |  |  | TR-FRET signal ([1]; compound concentration 4.68 nM): 0.1556 and 0.1596; TR-FRET signal ([1]; compound concentration 21.6 nM): 0.2553 and 0.252; TR-FRET signal ([1]; compound concentration 36 nM): 0.4296 and 0.427; TR-FRET signal [1, 4]: 0.6728 and 0.6901; TR-FRET signal [1, 5]: 0.9753 and 0.9579; TR-FRET signal [1, 6]: 1.242 and 1.248; TR-FRET signal [1, 7]: 1.483 and 1.517; TR-FRET signal [1, 8]: 1.637 and 1.718; TR-FRET signal ([1]; compound concentration 2448 nM): 1.781 and 1.804; TR-FRET signal [1, 9]: 1.87 and 1.831; TR-FRET signal [1, 10]: 1.812 and 1.801; EC50 [3, 14]: 281 nM |
| CC[C@H](CO)Nc1nc(NCCCc2ccc(Cl)c(Cl)c2)c2ncn(C(C)C)c2n1 [DS65] | 21 ± 1 | 20.8 | 20.8 | 103 | 528 | 214 | 0.285 and 0.2127 and 0.2055 | 0.3417 and 0.2944 and 0.2907 | 0.5004 and 0.4783 and 0.4869 | 0.7813 and 0.9382 and 0.8877 | 1.382 and 1.799 and 1.705 | 2.38 and 2.795 and 2.787 | 3.286 and 3.376 and 3.32 | 3.728 and 3.691 and 3.7229 | 3.806 and 3.848 and 3.815 | 3.884 and 3.899 and 3.865 | 3.902 and 3.823 and 3.872 |  |
| CC[C@H](CO)Nc1nc(NCCCc2ccc(C)c(C)c2)c2ncn(C(C)C)c2n1 [DS66] | 18 ± 1 | 17.7 | 17.7 | 88 | > 10000 | 0 | 0.2923 and 0.3076 and 0.198 and 0.2218 | 0.3989 and 0.4255 and 0.2838 and 0.3021 | 0.6137 and 0.6924 and 0.4704 and 0.4752 | 1.224 and 1.234 and 0.9118 and 0.9562 | 2 and 2.2 and 1.736 and 1.809 | 3.161 and 3.3799 and 3.037 and 2.9897 | 3.7362 and 4.009 and 3.696 and 3.655 | 3.905 and 4.159 and 3.906 and 3.9109 | 4.008 and 4.194 and 3.9625 and 4.012 | 4.134 and 4.267 and 4.125 and 4.115 | 4.074 and 4.31 and 4.121 and 4.142 |  |
| CCc1cccc(CCCNc2nc(N[C@H](CC)CO)nc3c2ncn3C(C)C)c1 [DS67] | 31 ± 1 | 30.5 | 30.5 | 219 | 517 | 819 | 0.3354 and 0.3368 | 0.4163 and 0.4021 | 0.5886 and 0.5847 | 0.9073 and 0.903 | 1.493 and 1.552 | 2.297 and 2.228 | 3.049 and 3.013 | 3.561 and 3.406 | 3.933 and 3.877 | 4.034 and 4.0558 | 4.271 and 4.04 |  |
| CC[C@H](CO)Nc1nc(NCCCc2cccc(O)c2)c2ncn(C(C)C)c2n1 [DS68] | 104 ± 7 |  | 104 | 571 | 2520 | 296 | 0.3136 and 0.2898 | 0.3334 and 0.33 | 0.3697 and 0.368 | 0.4418 and 0.4327 | 0.566 and 0.543 | 0.7892 and 0.7403 | 1.141 and 1.026 | 1.566 and 1.513 | 2.027 and 2.001 | 2.439 and 2.564 | 2.241 and 2.631 | TR-FRET signal [1, 16]: 0.3136 and 0.2898; TR-FRET signal ([1]; compound concentration 2.16 nM): 0.3334 and 0.33; TR-FRET signal ([1]; compound concentration 3.6 nM): 0.3697 and 0.368; TR-FRET signal [1, 17]: 0.4418 and 0.4327; TR-FRET signal [1, 18]: 0.566 and 0.543; TR-FRET signal [1, 19]: 0.7892 and 0.7403; TR-FRET signal [1, 20]: 1.141 and 1.026; TR-FRET signal [1, 21]: 1.566 and 1.513; TR-FRET signal [1, 22]: 2.027 and 2.001; TR-FRET signal [1, 23]: 2.439 and 2.564; TR-FRET signal [1, 24]: 2.241 and 2.631; EC50 ([3]; Supplementary Fig. 5, HEK293T, CellTiter Glo, 72h, pre-treatment with 100 nM MLN4924, read-out: Viability EC50, with MLN4924): 109000 nM |
| CC[C@H](CO)Nc1nc(NCCCc2cccc(C)n2)c2ncn(C(C)C)c2n1 [DS69] | 36 ± 1 | 35.9 | 35.9 | 217 | 864 | 599 | 0.3264 and 0.326 | 0.4029 and 0.3893 | 0.5395 and 0.5039 | 0.8326 and 0.7539 | 1.268 and 1.146 | 1.86 and 1.701 | 2.3803 and 2.291 | 2.963 and 2.837 | 3.2576 and 3.227 | 3.4627 and 3.352 | 3.462 and 3.373 |  |
